Our source for the doubling time values is patent US20230115208A1, “RING-FUSED THIAZOLINO 2-PYRIDONES, METHODS FOR PREPARATION THEREOF AND THEIR USE IN THE TREATMENT AND/OR PREVENTION OF TUBERCULOSIS” (QURETECH BIO AB, priority 2016, published 2023).

This assay deals with katGFSAA6 Mtb (INH-resistant, frameshift at amino acid 6 in katG). It is filed as cell-based, Mycobacterium tuberculosis.

As for `O=C(O)[C@@H]1CSc2c(C3CC3)c(Cc3cccc4ccccc34)cc(=O)n21` [Example 1, (3R)-7-Cyclopropyl-6-[(1-naphthyl)methyl]-4-oxo-1-thia-3a-aza-3-indancarboxylic acid], the doubling time was found to be 48 h.
For `NNC(=O)c1ccncc1` [INH, isonicotinylhydrazide, reference compound], the doubling time came out at 55 h.
